Experimental data reported in patent US12636290B2, “BET inhibitors for modulating DUX4 expression in FSHD” (Saint Louis University, priority 2018, dated 2026).
Structures can show the parent of a compound that is named as a salt. Where two headings read alike, the source gives them in different places.

Test system: DUX4 expression (surrogate marker MBD3L2)
Experiment: Screening: qPCR analysis of DUX4 target gene MBD3L2 in differentiating MB200 FSHD2 muscle cells
Type: cell-based
Conditions: Homo sapiens, 40 hours, DUX4 expression inferred from surrogate marker MBD3L2 expression (qPCR, normalized to RPL30)
Procedure: Cells and Cell Culture. Primary human myoblast cell lines, immortalized by retroviral transduction of cyclin-dependent kinase 4 (CDK4) and human telomerase reverse transcriptase (hTERT) (Stadler, et al., 2011), were obtained from the Fields Center at the University of Rochester (world-wide-web at urmc.rochester.edu/fields-center.aspx). Immortalized myoblasts were grown in Ham's F-10 Nutrient Mix (Gibco, Waltham, MA, USA) supplemented with 20% HyClone Fetal Bovine Serum (GE Healthcare Life Sciences, Pittsburgh, PA, USA), 100 U/100 μg penicillin/streptomycin (Gibco), 10 ng/ml recombinant human fibroblast growth factor (Promega Corporation, Madison, WI, USA) and 1 μM dexamethasone (Sigma-Aldrich). Differentiation of myoblasts into myotubes was achieved by switching the fully confluent myoblast monolayer into Dulbecco's Modified Eagle Medium (DMEM) (Gibco) containing 1% horse serum (Gibco), 100 U/100 μg penicillin/streptomycin, 10 μg/ml insulin (Sigma-Aldrich) and 10 μg/ml transferrin (Sigma-Aldrich) (HS/IT media) or DMEM:F12 Nutrient Mixture (1:1, Gibco) supplemented with 2% KnockOut Serum Replacement (Gibco), 100 U/100 μg penicillin/streptomycin, 10 μg/ml insulin and 10 μg/ml transferrin (KSR media) for 2-6 days.
Screening: qPCR analysis of DUX4 target genes MBD3L2. For screening compounds, differentiating MB200 FSHD2 muscle cells were exposed to BET inhibitors at a variety of concentrations for 40 hours to determine the effects of the drugs on DUX4 expression. Cell lysates were prepared using Cells-to-Ct Bulk Lysis Reagents (Invitrogen, Waltham, MA, USA). Gene expression was measured by quantitative polymerase chain reaction (qPCR) was carried out on a QuantStudio 5 (Applied Biosystems, Waltham, MA, USA) using TaqMan Gene Expression Assays (Applied Biosystems) and TaqMan Fast Virus 1-Step Master Mix (Invitrogen). The relative expression levels of DUX4 target gene methyl-CpG binding domain protein 3 like 2 (MBD3L2), was normalized to that of the reference gene ribosomal protein L30 (RPL30), which was included in multiplex (two gene) PCR reactions. TaqMan Gene Expression Assay ID numbers: MBD3L2, Hs00544743_m1; RPL30, Hs00265497_m1. Data is expressed as relative expression with the expression in absence of inhibitors set to one.
Analysis of MBD3L2 expression in cultured FSHD2 cells. DUX4 mRNA is present in very low levels, even in differentiating FSHD2 myoblasts, so DUX4 target gene MBD3L2 was used as a surrogate marker of DUX4 expression. FSHD2 patient derived muscle cells were analyzed to determine whether BET inhibitors affect MBD3L2 expression, indicating a reduction in DUX4 expression.

SMILES	IC50 (read-out: DUX4* MT FSHD2: IC50) [nM]	IC50 (read-out: DUX4* MT FSHD2 IC50) [nM]
C[C@H]1CN(C)C(=O)CN1CCOc1ccc(-c2ccc3cc(-c4cn(C)c(=O)c5[nH]ccc45)ccc3n2)cc1 [SLU-2287, (S)-4-{2-[4-(2-(2,4-dimethyl-5-oxopiperazin-1-yl)ethoxy)phenyl]quinolin-6-yl}-6-methyl-1,6-dihydro-7H-pyrrolo[2,3-c]pyridin-7-one]	108	108
CN1CCN(CCOc2ccc(-c3ccc4cc(-c5cn(C)c(=O)c6[nH]ccc56)ccc4n3)cc2)CC1 [SLU-2288]	250	250
COc1cc(-c2ccc(OCCN3[C@H](C)CN(C(C)=O)C[C@@H]3C)cc2)ccc1-c1cn(C)c(=O)c2[nH]ccc12 [SLU-2098, 4-{4′-[2-((2R,6S)-4-acetyl-2,6-dimethylpiperazin-1-yl)ethoxy)-3-methoxy-[1,1′-biphenyl]-4-yl}-6-methyl-1H-pyrrolo[2,3-c]pyridin-7(6H)-one]	310	310
CN1CCN(CCOc2ccc(-c3ccc4cc(-c5cn(C)c(=O)c6[nH]ccc56)ccc4n3)cc2)CC1=O [SLU-2244, 6-methyl-4-{2-[4-(2-(4-methyl-3-oxopiperazin-1-yl)ethoxy)phenyl]quinolin-6-yl}-1H-pyrrolo[2,3-c]pyridin-7(6H)-one]	28	28
C[C@@H]1C(=O)N(C)CCN1CCOc1ccc(-c2ccc3cc(-c4cn(C)c(=O)c5[nH]ccc45)ncc3c2)cc1 [SLU-2219, (R)-4-{7-[4-(2-(2,4-dimethyl-3-oxopiperazin-1-yl)ethoxy)phenyl]isoquinolin-3-yl}-6-methyl-1H-pyrrolo[2,3-c]pyridin-7(6H)-one]	95	95
C[C@@H]1C(=O)N(C)CCN1CCOc1ccc(C2CCN(c3ccc(-c4cn(C)c(=O)c5[nH]ccc45)cc3)CC2)cc1 [SLU-2212, (R)-4-{4-[4-(4-(2-(2,4-dimethyl-3-oxopiperazin-1-yl)ethoxy)phenyl)piperidin-1-yl]phenyl}-6-methyl-1H-pyrrolo[2,3-c]pyridin-7(6H)-one]	86	86
Cn1cc(-c2ccc(N3CCC(c4ccc(OCCN5CCCCC5)cc4)CC3)nc2)c2cc[nH]c2c1=O [SLU-2116, 6-methyl-4-{6-[4-(4-(2-(piperidin-1-yl)ethoxy)phenyl)piperidin-1-yl]pyridin-3-yl}-1H-pyrrolo[2,3-c]pyridin-7(6H)-one]	270	270
C#CCN1CCN(CCOc2ccc(-c3ccc4cc(-c5cn(C)c(=O)c6[nH]ccc56)ccc4n3)cc2)CC1=O [SLU-2281, 6-methyl-4-{2-[4-(2-(3-oxo-4-(prop-2-yn-1-yl)piperazin-1-yl)ethoxy)phenyl]quinolin-6-yl}-1H-pyrrolo[2,3-c]pyridin-7(6H)-one]	130	130
CN1CCN(CCOc2ccc(-c3ccc4nc(-c5cn(C)c(=O)c6[nH]ccc56)ccc4c3)cc2)C(C)(C)C1=O [SLU-2280, 6-methyl-4-{6-[4-(2-(2,2,4-trimethyl-3-oxopiperazin-1-yl)ethoxy)phenyl]quinolin-2-yl}-1H-pyrrolo[2,3-c]pyridin-7(6H)-one]	120	120
C[C@@H]1CCC[C@H](C)N1CCOc1ccc(-c2ccc3cc(-c4cn(C)c(=O)c5[nH]ccc45)ccc3n2)cc1 [SLU-2233, 4-{2-[4-(2-((2R,6S)-2,6-dimethylpiperidin-1-yl)ethoxy)phenyl]quinolin-6-yl}-6-methyl-1H-pyrrolo[2,3-c]pyridin-7(6H)-one]	290	290
C[C@@H]1C(=O)N(C)CCN1CCOc1ccc(-c2ccc3cc(-c4c[nH]c(=O)c5[nH]ccc45)ccc3n2)cc1 [SLU-2302, (R)-4-{2-[4-(2-(2,4-dimethyl-3-oxopiperazin-1-yl)ethoxy)phenyl]quinolin-6-yl}-1H-pyrrolo[2,3-c]pyridin-7(6H)-one]	1800	1800
CN1CCN(CCOc2ccc(-c3ccc4nc(-c5cn(C)c(=O)c6[nH]ccc56)ccc4c3)cc2)CC1=O [SLU-2283, 6-methyl-4-{6-[4-(2-(4-methyl-3-oxopiperazin-1-yl)ethoxy)phenyl]quinolin-2-yl}-1H-pyrrolo[2,3-c]pyridin-7(6H)-one]	160	160
C[C@@H]1C(=O)N(C)CCN1CCOc1ccc(-c2ccc3nc(-c4cn(C(F)F)c(=O)c5[nH]ccc45)ccc3c2)cc1 [SLU-2325, (R)-6-(difluoromethyl)-4-{6-[4-(2-(2,4-dimethyl-3-oxopiperazin-1-yl)ethoxy)phenyl]quinolin-2-yl}-1H-pyrrolo[2,3-c]pyridin-7(6H)-one]	290	290
CC(=O)N1C[C@@H](C)N(CCOc2ccc(-c3ccc(-c4cn(C)c(=O)c5[nH]ccc45)cc3)cc2)[C@@H](C)C1 [SLU-2096, 4-{4′-[2-((2R,6S)-4-acetyl-2,6-dimethylpiperazin-1-yl)ethoxy]-[1,1′-biphenyl]-4-yl}-6-methyl-1H-pyrrolo[2,3-c]pyridin-7(6H)-one]	180	180
CN(C)CCOc1ccc(C2CCN(c3ccc(-c4cn(C)c(=O)c5[nH]ccc45)cn3)CC2)cc1 [SLU-2109, 4-{6-[4-(4-(2-(dimethylamino)ethoxy)phenyl)piperidin-1-yl]pyridin-3-yl}-6-methyl-1H-pyrrolo[2,3-c]pyridin-7(6H)-one]	33	33
CC(=O)N1C[C@@H](C)N(CCOc2ccc(-c3ccc4cc(-c5cn(C)c(=O)c6[nH]ccc56)ccc4n3)cc2)[C@@H](C)C1 [SLU-2107, 4-{2-[4-(2-((2R,6S)-4-acetyl-2,6-dimethylpiperazin-1-yl)ethoxy)phenyl]quinolin-6-yl}-6-methyl-1H-pyrrolo[2,3-c]pyridin-7(6H)-one]	48	48
Cn1cc(-c2ccc(N3CCC4(CCNCC4)CC3)nc2)c2cc[nH]c2c1=O [SLU-2130, 4-[6-(3,9-diazaspiro[5.5]undecan-3-yl)pyridin-3-yl]-6-methyl-1H-pyrrolo[2,3-c]pyridin-7(6H)-one·hydrochloride]	120	120
Cn1cc(-c2ccc3nc(-c4ccc(OCCN5CCOCC5)cc4)ccc3c2)c2cc[nH]c2c1=O [SLU-2234, 6-methyl-4-{2-[4-(2-morpholinoethoxy)phenyl]quinolin-6-yl}-1,6-dihydro-7H-pyrrolo[2,3-c]pyridin-7-one]	69	69
C[C@@H]1C(=O)N(C)CCN1CCOc1ccc(-c2ccc3cc(-c4cn(C)c(=O)c5[nH]ccc45)ccc3n2)cn1 [SLU-2240, (R)-4-{2-[6-(2-(2,4-dimethyl-3-oxopiperazin-1-yl)ethoxy)pyridin-3-yl]quinolin-6-yl}-6-methyl-1,6-dihydro-7H-pyrrolo[2,3-c]pyridin-7-one]	35	35
C[C@@H]1C(=O)N(C)CCN1CCOc1cccc(-c2ccc3cc(-c4cn(C)c(=O)c5[nH]ccc45)ccc3n2)c1 [SLU-2301, (R)-4-{2-[3-(2-(2,4-dimethyl-3-oxopiperazin-1-yl)ethoxy)phenyl]quinolin-6-yl}-6-methyl-1H-pyrrolo[2,3-c]pyridin-7(6H)-one]	13	13
C[C@@H]1C(=O)N(C)CCN1CCOc1ccc2cc(-c3cn(C)c(=O)c4[nH]ccc34)ccc2n1 [SLU-2348, (R)-4-{2-[2-(2,4-dimethyl-3-oxopiperazin-1-yl)ethoxy]quinolin-6-yl}-6-methyl-1H-pyrrolo[2,3-c]pyridin-7(6H)-one]	140	140
C[C@@H]1C(=O)N(C)CCN1CCCOc1ccc2cc(-c3cn(C)c(=O)c4[nH]ccc34)ccc2n1 [SLU-2347, (R)-4-{2-[3-(2,4-dimethyl-3-oxopiperazin-1-yl)propoxy]quinolin-6-yl}-6-methyl-1H-pyrrolo[2,3-c]pyridin-7(6H)-one]	85	85
C[C@@H]1C(=O)N(C)CCN1CCOc1ccc(N2CCN(c3ccc(-c4cn(C)c(=O)c5[nH]ccc45)cn3)CC2)nc1 [SLU-2110, (R)-4-{6-[4-(5-(2-(2,4-dimethyl-3-oxopiperazin-1-yl)ethoxy)pyridin-2-yl)piperazin-1-yl]pyridin-3-yl}-6-methyl-1H-pyrrolo[2,3-c]pyridin-7(6H)-one]	16	16
